# Test results taken from patent US10100077B2, “6-aryl-9-glycosylpurines and use thereof” (UNIVERZITA PALACKEHO V OLOMOUCI, priority 2014, dated 2018).
# Experiments:
# [1] = tested on: detached leaf segments of Triticum aestivum cv. Hereward; test: Senescence bioassay on wheat leaf segments (chlorophyll retention); settings: chlorophyll retention at maximum effective concentration, 96 h dark
# Description: Seeds of winter wheat, Triticum aestivum cv. Hereward, were washed under running water for 24 hours and then sown on vermiculite soaked with Knop's solution. They were placed in the growth chamber at 25° C. with a 16/8 h light period at 50 μmol·m^−2·s^−1. After 7 days, the first leaf was fully developed and the second leaf had started to grow. A tip section of the first leaf, approximately 35 mm long, was removed from 5 seedlings and trimmed slightly to a combined weight of 100 mg. The basal ends of the five leaf tips were placed in the wells of a microtiter polystyrene plate containing 150 μL, of the tested derivative solution each. The entire plate was inserted into a plastic box lined with paper tissues soaked in distilled water to prevent leaf sections from drying out. After 96 h incubation in the dark at 25° C., the leaves were removed and chlorophyll extracted by heating at 80° C. for 10 min in 5 mL of 80% ethanol (v/v). The sample volume was then restored to 5 mL by the addition of 80% ethanol (v/v). The absorbance of the extract was recorded at 665 nm. In addition, chlorophyll extracts from fresh leaves and leaf tips incubated in deionised water were measured. The results are means of five replicates and the entire test was repeated twice. […] The compounds to be tested were dissolved in dimethylsulfoxide (DMSO) and the solution brought up to 10^−3M with distilled water. This stock solution was further diluted with the respective media used for the biotest to a concentration ranging from 10^−8M to 10^−4M. […] The activity obtained for 10^−4 M of BAP was postulated as 100%.
# [2] = Calcein AM cytotoxicity assay, MCF-7; type: cell-based; settings: human, MCF-7 breast cancer cells
# In short: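 K562, MCF-7 and NIH3T3 cells (10^4/well) in DMEM with 10% FBS were preincubated for 24 hrs, then given six 4-fold dilutions, usually from 166.7 μM, in duplicate for 72 hrs at 37° C. Viability was read by Calcein AM fluorescence after 1 hour, with GI50 from survival relative to control.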
# [3] = tested on: Normal human dermal fibroblasts (NHDF); test: In vitro UVA photoprotection test (neutral red); type: cell-based; settings: UVA 7.5 J/cm^2, 0.9; 1.8; 3.9 a 7.8 μmol/l, 60 minutes pre-incubation
# From the text: Normal human dermal fibroblasts (NHDF) were used as an in vitro model. Cells were isolated from tissue specimens obtained from healthy patients undergoing plastic surgery at the Department of Plastic and Aesthetic Surgery (University Hospital Olomouc). The use of skin tissue was in accordance with the Ethics Committee of the University Hospital and Faculty of Medicine and Dentistry, Palacký University, Olomouc and all patients signed written informed consent. Fibroblasts were used between the 2nd and 4th passage. For all experiments the fibroblasts were seeded onto 96-well plates at a density of 0.8×10^5 cells/ml (0.2 ml per well) of cultivation medium (DMEM supplemented with foetal calf serum (10%, v/v), penicillin […] and streptomycin (100 U/ml)).
# Test compounds included 6-(3-methoxybenzylamino)-9-β-D-arabinofuranosylpurine. […] Intensity of UVA or UVB radiation was evaluated before each irradiation by UVA- or UVB-meter. […] After 24 hours (37° C., 5% CO2) cell damage was evaluated by neutral red (NR) incorporation into viable cells. […] After 5 minutes of intensive shaking absorbance was measured at 540 nm. […] Photoprotective effect was evaluated by comparison of experimental data (absorbance) of test compounds with a positive control and a negative control (according to the following equation: […]
compound,measurement,setting,value
COc1cccc(CNc2ncnc3c2ncn3[C@@H]2O[C@H](CO)[C@@H](O)[C@@H]2O)c1 [6-(3-methoxybenzylamino)-9-β-D-arabinofuranosylpurine],activity (%) [10^−4 mol · l^−1 BAP = 100%],[1],118 ± 2%
same,GI50 at 72 h,[2],> 100 µM
same,viability after UVA vs DMSO control (photoprotection),[3],higher viability
